# In US20230382863A1, “MEK INHIBITORS AND USES THEREOF” (Ikena Oncology, Inc., priority 2022, published 2023):
# Like-named read-outs stand apart in the source and are kept apart here.
# Tests used:
# [1] = Cassette pharmacokinetics studies in mice; type: in vivo; conditions: male, Balb/c, plasma; Mouse, PO, 5 mg/kg
# Method: Pharmacokinetics studies were conducted using cassette dosing protocols, with test compounds administered per mouse. Treatment groups were 3 mice (˜6-8 weeks old, ˜20-30 g Balb/c male mice) per route of administration. Compounds were formulated in 5% DMSO and 95% PEG400 with final concentrations of 0.5 mg/mL for IV and PO dosing. Compounds were dosed at 2 mg/kg for IV dosing and 5 mg/kg for PO dosing. Blood samples were withdrawn at 0.083, 0.25, 0.5, 1.0, 2.0, 4.0, 6.0, 8.0, and 24 hours following IV dosing, and 0.25, 0.5, 1.0, 2.0, 4.0, 6.0, 8.0, and 24 hours following PO dosing. Blood samples were centrifuged at 4,000 g for 5 minutes at 4° C. to obtain plasma samples. Plasma samples were diluted with acetonitrile containing internal standard, vortexed for 30 seconds, then centrifuged at 4,000 rpm for 15 minutes at 4° C. The supernatant was diluted with water, and compound concentration was determined by HPLC/MS/MS compared to calibration standards of 0.5-1,000 ng/mL.
# Where route is listed as “IV*”, the compound was dosed IV at 1 mg/kg.
# MEK1-CRAF complex = MEK1-CRAF complex (Homo sapiens (Human), UniProt Q02750); experiment: Stabilization of MEK1-CRAF complex assay (AlphaLISA); type: binding
# Method: MEK1 was diluted to 4 nM, and nickel chelate donor beads and glutathione acceptor beads were diluted to 80 μg/mL. CRAF was diluted to a top concentration of 160 nM, which was subsequently diluted to 80, 40, 20, 10, 5, 2.5, 1.25, and 0.625 nM through 1:2 serial dilution.
# Exemplary MEK inhibitor compounds (0, 0.01, 0.1, or 1 μM) were added to a 384-AlphaPlate (PerkinElmer, 6008350) by a digital liquid dispenser (Tecan D300e) based on a total volume of 20 μL reaction mixture.
# 5 μL 4×MEK1 stock solution was added to wells A1-P20 by multichannel pipettes. The plate was sealed with clear olefin sealing tape (Thermo Scientific, 232701), centrifuged at 1000 rpm for 1 minute, and incubated at room temperature for 30 minutes.
# 5 μL 4×CRAF stock solution at different concentrations or 5 μL or 10 μL AlphaLISA buffer was added by multichannel pipettes. The plate was sealed, centrifuged at 1000 rpm for 1 minute, and incubated at room temperature for 60 minutes.
# 5 μL 4×glutathione acceptor beads were first added to all wells by multichannel pipettes. The ambient light was subsequently adjusted to <100 lux (light meter) before adding 5 μL 4×nickel chelate donor beads to the same wells. From this step on, the plate was covered with a black plate cover, centrifuged at 1000 rpm for 1 minute, and incubated at room temperature for 60 minutes.
# Data were collected on a PHERAStar FSX (BMG LABTECH) using the AlphaLISA module (excitation: 680 nm, emission: 615 nm), with a gain of 3600. The excitation time was 0.30 seconds, and data collection started after a 0.04-second delay for a total integration time of 0.60 seconds.
# The individual AlphaLISA counts of wells with exemplary MEK inhibitor compound were divided by the average AlphaLISA counts of wells without compound to obtain AlphaLISA signal/background ratio (S/B). The dissociation constant (KD) of MEK1-CRAF was calculated using nonlinear regression curve fit in GraphPad PRISM® 9.0 software.
# uMEK/BRAF = uMEK/BRAF (Homo sapiens (Human), UniProt Q02750); experiment: MEK-RAF Binding Assay (uMEK/BRAF HTRF)
# pERK HCT-116 (G13D) = pERK HCT-116 (G13D) ICW (4 hour); type: cell-based
# [2] = tested on: Phosphorylation of ERK1/2 in AsPC1 cells; experiment: 4 hour pERK1/2 HTRF Assay; type: cell-based; conditions: Homo sapiens, ASPC1, read-out: pERK AsPC-1 HTRF (4 hour): Average IC50 (nM); AsPC-1, 4 hour
# Method: AsPC1 cells were seeded at 20,000 cells/well overnight in 96-well plates, then treated with a 12-point dose response of compounds (Starting dose of 3000 nM and 3-fold dilution) for 4 hours. AsPC1 cells are a K-Ras mutant cell line. Phosphorylation of ERK1/2 on residues Thr202 and Tyr204 were detected using a Homogenous Time-Resolved Fluorescence (HTRF) assay (Cisbio Cat #64ERKPEG). Briefly, ERK phosphorylation was detected using a sandwich assay format using two phospho-ERK specific antibodies, one labelled with EU^3+-Cryptate (donor) and the second with d2 (acceptor). The Fluorescence Resonance Energy Transfer (FRET) towards the d2 acceptor was detected at a wavelength of 665 nm. ERK1/2 phosphorylation levels were normalized to total ERK1/2 protein levels in each well. IC50 values were determined by fitting a variable slope, four parameters curve to the compound concentration to normalized Phospho-ERK1/2 relationship.
# [3] = Homo sapiens, read-out: pERK HCT-116 (G13D) ICW (4 hour): Average IC50 (nM)
# [4] = read-out: pERK HCT-116 (G13D) ICW (4 hour): Average IC50
Molecule,IC50 (uMEK/BRAF),IC50 (pERK HCT-116 (G13D); [3]),further results
CCNC(=O)c1c(Oc2cccc(NS(=O)(=O)NC)c2Cl)c(C)c(=O)n(C)c1Nc1ccc(I)cc1F [Compound I-54],,,"AUC(0-inf) [1]: 4540 ng·h/mL; AUC(0-t) [1]: 4390 ng·h/mL; Cmax [1]: 1670 ng/mL; Tmax [1]: 0.5 h; half-life [1]: 1.6 h; KD Ratio (mean), compound to DMSO (MEK1-CRAF complex; compound 0.01 μM): 0.58; KD Ratio (mean), compound to DMSO (MEK1-CRAF complex; compound 0.1 μM): 0.36; KD Ratio (mean), compound to DMSO (MEK1-CRAF complex; compound 1 μM): 0.35"
CNS(=O)(=O)Nc1cc(Oc2c(C(=O)NC3CC3)c(Nc3ccc(I)cc3F)n(C)c(=O)c2C)ccc1OC [Compound I-18],100 to 1000 nM,1000 to 10000 nM,
Cc1c(Oc2ccc3c(c2)NS(=O)(=O)NC3)c(C(=O)NC2CC2)c(Nc2ccc(I)cc2F)n(C)c1=O [Compound I-13],100 to 1000 nM,100 to 1000 nM,
CNS(=O)(=O)Nc1cc(Oc2c(C(=O)NC3CC3)c(Nc3ccc(I)cc3F)n(C)c(=O)c2C)ccc1C [Compound I-22],100 to 1000 nM,1000 to 10000 nM,
CNS(=O)(=O)Nc1ccc(F)c(Oc2c(C(=O)NC3CC3)c(Nc3ccc(I)cc3F)n(C)c(=O)c2C)c1 [Compound I-17],100 to 1000 nM,100 to 1000 nM,
CNS(=O)(=O)Nc1cccc(Oc2c(C(=O)NC3CC3)c(Nc3ccc(I)cc3F)n(C)c(=O)c2C)c1OC(F)(F)F [Compound I-40],,,"IC50 [2]: < 100 nM; AUC(0-inf) [1]: 2940 ng·h/mL; AUC(0-t) [1]: 2750 ng·h/mL; Cmax [1]: 783 ng/mL; Tmax [1]: 0.8 h; half-life [1]: 1.82 h; KD Ratio (mean), compound to DMSO (MEK1-CRAF complex; compound 0.01 μM): 0.87; KD Ratio (mean), compound to DMSO (MEK1-CRAF complex; compound 0.1 μM): 0.62; KD Ratio (mean), compound to DMSO (MEK1-CRAF complex; compound 1 μM): 0.47"
"N-cyclopropyl-2-[(2-fluoro-4-iodophenyl)amino]-4-(3-methanesulfonoimidamidophenoxy)-1,5-dimethyl-6-oxopyridine-3-carboxamide [Compound I-20]",100 to 1000 nM,,IC50 (pERK HCT-116 (G13D); [4]): 100 to 1000 nM
CNS(=O)(=O)Nc1cccc(Oc2c(C(=O)NC(C)C)c(Nc3ccc(I)cc3F)n(C)c(=O)c2C)c1Cl [Compound I-41],,,"AUC(0-inf) [1]: 3470 ng·h/mL; AUC(0-t) [1]: 3340 ng·h/mL; Cmax [1]: 1260 ng/mL; Tmax [1]: 0.5 h; half-life [1]: 1.62 h; KD Ratio (mean), compound to DMSO (MEK1-CRAF complex; compound 0.01 μM): 0.79; KD Ratio (mean), compound to DMSO (MEK1-CRAF complex; compound 0.1 μM): 0.57; KD Ratio (mean), compound to DMSO (MEK1-CRAF complex; compound 1 μM): 0.48"
Cc1c(Oc2ccc3c(c2)CNS(=O)(=O)N3C)c(C(=O)NC2CC2)c(Nc2ccc(I)cc2F)n(C)c1=O [Compound I-61],100 to 1000 nM,100 to 1000 nM,
CNS(=O)(=O)Nc1cc(Oc2c(C(=O)NC3CC3)c(Nc3ccc(I)cc3F)n(C)c(=O)c2C)ccc1F [Compound I-15],100 to 1000 nM,100 to 1000 nM,
CNS(=O)(=O)Nc1cccc(Oc2c(C(=O)N(C)C3CC3)c(Nc3ccc(I)cc3F)n(C)c(=O)c2C)c1C [Compound I-24],1000 to 10000 nM,100 to 1000 nM,
Cc1c(Oc2cccc(CS(N)(=O)=O)c2)c(C(=O)NC2CC2)c(Nc2ccc(I)cc2F)n(C)c1=O [Compound I-16],100 to 1000 nM,100 to 1000 nM,

# Second part, led by results:
IC50 (uMEK/BRAF),IC50 (pERK HCT-116 (G13D); [3]),Molecule,further results
100 to 1000 nM,100 to 1000 nM,Cc1c(Oc2ccc3c(c2)CNS(=O)(=O)N3)c(C(=O)NC2CC2)c(Nc2ccc(I)cc2F)n(C)c1=O [Compound I-59],
< 100 nM,< 100 nM,"Cc1c(Oc2cccc(N=S(C)(N)=O)c2)c(C(=O)NC2CC2)c(Nc2ccc(I)cc2F)n(C)c1=O (stereo in doubt) [Compound I-8, (R)-4-(3-((amino(methyl)oxo-lambda6-sulfaneylidene)amino)phenoxy)-N-cyclopropyl-2-((2-fluoro-4-iodophenyl)amino)-1,5-dimethyl-6-oxo-1,6-dihydropyridine-3-carboxamide]",
< 100 nM,,CNS(=O)(=O)Nc1cccc(Oc2c(C(=O)NCC(F)(F)F)c(Nc3ccc(I)cc3F)n(C)c(=O)c2C)c1Cl [Compound I-45],"IC50 [2]: < 100 nM; KD Ratio (mean), compound to DMSO (MEK1-CRAF complex; compound 0.01 μM): 0.62; KD Ratio (mean), compound to DMSO (MEK1-CRAF complex; compound 0.1 μM): 0.42; KD Ratio (mean), compound to DMSO (MEK1-CRAF complex; compound 1 μM): 0.38"
100 to 1000 nM,,"CNS(=O)(=O)Cc1cccc(Oc2c(C(=O)NC3CC3)c(Nc3ccc(I)cc3F)n(C)c(=O)c2C)c1 [Compound I-23, N-cyclopropyl-2-((2-fluoro-4-iodophenyl)amino)-1,5-dimethyl-4-(3-((N-methylsulfamoyl)methyl)phenoxy)-6-oxo-1,6-dihydropyridine-3-carboxamide]",IC50 (pERK HCT-116 (G13D); [4]): 1000 to 10000 nM
100 to 1000 nM,< 100 nM,Cc1c(Oc2ccc3c(c2)CN(C)S(=O)(=O)N3)c(C(=O)NC2CC2)c(Nc2ccc(I)cc2F)n(C)c1=O [Compound I-60],
< 100 nM,,COCCNS(=O)(=O)Nc1cccc(Oc2c(C(=O)NC3CC3)c(Nc3ccc(I)cc3F)n(C)c(=O)c2C)c1Cl [Compound I-55],"IC50 [2]: < 100 nM; AUC(0-inf) [1]: 1090 ng·h/mL; AUC(0-t) [1]: 1090 ng·h/mL; Cmax [1]: 801 ng/mL; Tmax [1]: 0.4 h; half-life [1]: 1.58 h; KD Ratio (mean), compound to DMSO (MEK1-CRAF complex; compound 0.01 μM): 0.76; KD Ratio (mean), compound to DMSO (MEK1-CRAF complex; compound 0.1 μM): 0.58; KD Ratio (mean), compound to DMSO (MEK1-CRAF complex; compound 1 μM): 0.51"
< 100 nM,< 100 nM,CNS(=O)(=O)Nc1cc(F)cc(Oc2c(C(=O)NC3CC3)c(Nc3ccc(I)cc3F)n(C)c(=O)c2C)c1 [Compound I-10],
< 100 nM,< 100 nM,"CNS(=O)(=O)Nc1cccc(Oc2c(C(=O)NC3CC3)c(Nc3ccc(I)cc3F)n(C)c(=O)c2C)c1 [Compound I-5, N-cyclopropyl-2-((2-fluoro-4-iodophenyl)amino)-1,5-dimethyl-4-(3-((N-methylsulfamoyl)amino)phenoxy)-6-oxo-1,6-dihydropyridine-3-carboxamide]",
< 100 nM,1000 to 10000 nM,CNS(=O)(=O)n1ccc2c(Oc3c(C(=O)NC4CC4)c(Nc4ccc(I)cc4F)n(C)c(=O)c3C)cccc21 [Compound I-12],
< 100 nM,100 to 1000 nM,Cc1c(Oc2cccc(CS(=O)(=O)N(C)C)c2)c(C(=O)NC2CC2)c(Nc2ccc(I)cc2F)n(C)c1=O [Compound I-11],
< 100 nM,< 100 nM,Cc1c(Oc2cccc(NS(N)(=O)=O)c2)c(C(=O)NC2CC2)c(Nc2ccc(I)cc2F)n(C)c1=O [Compound I-6],
< 100 nM,< 100 nM,"CNS(=O)(=O)Nc1cccc(Oc2c(C(=O)NC3CC3)c(Nc3ccc(I)cc3F)n(C)c(=O)c2C)c1F [Compound I-4, N-cyclopropyl-4-{2-fluoro-3-[(methylsulfamoyl)amino]phenoxy}-2-[(2-fluoro-4-iodophenyl)amino]-1,5-dimethyl-6-oxopyridine-3-carboxamide]",
< 100 nM,< 100 nM,"Cc1c(Oc2cccc(N=S(C)(N)=O)c2)c(C(=O)NC2CC2)c(Nc2ccc(I)cc2F)n(C)c1=O (stereo in doubt) [Compound I-7, (S)-4-(3-((amino(methyl)oxo-lambda6-sulfaneylidene)amino)phenoxy)-N-cyclopropyl-2-((2-fluoro-4-iodophenyl)amino)-1,5-dimethyl-6-oxo-1,6-dihydropyridine-3-carboxamide]",
